Among the data in patent US12715781B2, “Water treatment and purification method” (priority 2019, dated 2026) are Inhibitions zones diameters values, retold here.

One experiment relates to S. aureus ATCC 25923. The experiment in a line: Agar well diffusion, zone of inhibition. It is filed as cell-based, Staphylococcus aureus. The following applies: 8 mm wells, nanoparticles 100 μL (50 μg) per well, tetracycline 15 μg/wells, 24 hr at 37° C. As for the experimental part: (§1) For bacterial growth, a lawn of culture was prepared by spreading the […] of each test organism on nutrient agar plates. Plates were left standing for 10 minutes to let the culture get absorbed. Then 8 mm wells were punched into the nutrient agar plates for testing nanomaterial antimicrobial activity. Using a micropipette, 100 μL (50 μg) of the sample of nanoparticle suspension was poured onto each of five wells on all plates. After 24 hr incubation at 37° C.±2° C., the diameter of inhibition zone was measured.

In the next experiment the test system is E. coli. Nature of the experiment: Agar well diffusion, zone of inhibition. The following applies: 8 mm wells, nanoparticles 100 μL (50 μg) per well, tetracycline 15 μg/wells, 24 hr at 37° C. It is filed as cell-based. As for the experimental part: as §1

In the case of `CN(C)[C@@H]1C(O)=C(C(N)=O)C(=O)[C@@]2(O)C(O)=C3C(=O)c4c(O)cccc4[C@@](C)(O)[C@H]3C[C@@H]12` [Tetracycline, tetracycline], the Inhibitions zones diameters in the experiment with S. aureus ATCC 25923 is recorded as 18 ± 0.2 mm; with E. coli, 20 ± 0.2 mm.
